From patent publication US20220193201A1, “GLP-1R AGONIST REDUCES RETINAL INFLAMMATION AND NEURON DEATH SECONDARY TO OCULAR HYPERTENSION” (THE TRUSTEES OF THE UNIVERSITY OF PENNSYLVANIA, priority 2020, published 2022)

Assays:
CD11b+ CD11c+ cells = test: qPCR of Il1a, Tnf, C1qa mRNA in CD11b+ CD11c+ cells sorted from neurosensory retina of microbead-injected mice; format: in vivo, mouse; details: NLY01 5 mg/kg s.c. twice weekly vs NSS
[1] = system: retinal ganglion cells (RGCs); test: Retinal ganglion cell counting on retinal flatmounts (Brn3a, Rbpms), microbead eIOP model, subcutaneous NLY01; format: in vivo, mouse; details: 42 days; NLY01 5 mg/kg twice weekly vs NSS; bead eye normalized to BSS eye
[2] = Intraocular pressure (IOP) measurement in microbead-induced ocular hypertension mouse glaucoma model; details: NLY01 5 mg/kg s.c. twice weekly vs normal saline; IOP across the study
NFκB [3] = details: GLP-1R-dependent manner; cited from earlier work
NFκB [4] = test: phospho-NFκB/total NFκB ELISA and NFκBIA (IκBα) qPCR in sorted CD11b+ retinal cells of microbead-injected mice; format: in vivo, mouse; details: 42nd day post-injection; CD11b+ CD11c− and CD11b+ CD11c+ cells; NLY01 5 mg/kg s.c. twice weekly vs NSS
Protocol: FIGS. 11A-11D show NLY01 modulates NFκB signaling in CD11b+ CD11c− and CD11b+ CD11c+ cells. Related to FIGS. 4A-4H and 5A-5H. C57BL6/J (WT) mice were injected either with microbeads (“Bead”, left eye), to increase intraocular pressure (IOP), or with BSS (right eye). Following intraocular injections, mice were randomized to twice weekly subcutaneous NLY01 (5 mg kg^−1 per injection) or normal saline solution (NSS). 42 days post-injection mice were euthanized, neurosensory retina (“NSR”) was harvested and sorted as described in FIG. 9A to isolate CD11b+CD11c− and CD11b+ CD11c+ cells. […] All data presented as mean±SEM. Ordinary one-way ANOVA, *p<0.05, **p<0.01, ***p<0.001, ****p<0.0001.
ACSA2+, CD11b+ CD11c−, and CD11b+ CD11c+ cells were isolated from adult murine retinas using the Miltenyi Adult Brain Dissociation Kit (Miltenyi Biotec, 130-107-677) and MACS magnetic cell separation system. […]
ELISA kits were used to measure protein levels of IL-1α (BMS627, Thermofisher Scientific), TNF-α (BMS607-3, Thermofisher Scientific), C1q (LS-F55223-1, LifeSpan BioSciences), C3 (ab157711, Abcam), and phospho-NFκB/total NFκB (Thermofisher Scientific, 50-246-259) according to the manufacturer's protocol. […] Protein levels were determined by comparing the absorbance produced by the samples with that of a calibration curve. […]

[5] = cited from earlier work
[6] = system: ACSA2+ cells (astrocyte and Müller cell enriched); test: qPCR of pan reactive, A1-specific transcripts and C3 in ACSA2+ retinal cells of microbead-injected mice; format: in vivo, mouse; details: NLY01 5 mg/kg s.c. twice weekly vs NSS
[7] = cited from earlier work; remark: listed apart in the source
CD11b+ CD11c− cells = test: qPCR of Il1a, Tnf, C1qa mRNA in CD11b+ CD11c- cells sorted from neurosensory retina of microbead-injected mice; format: in vivo, mouse; details: NLY01 5 mg/kg s.c. twice weekly vs NSS
[8] = mouse model of Parkinson's disease

NLY01: pegylated exendin-4 (exenatide); long-acting GLP-1R agonist, obtained from Neuraly
CD11b+ CD11c+ expression of C1q (CD11b+ CD11c+ cells; 14th day post-injection): reduced | CD11b+ CD11c+ expression of IL-1α (CD11b+ CD11c+ cells; 14th day post-injection): reduced | CD11b+ CD11c+ expression of TNF-α (CD11b+ CD11c+ cells; 14th day post-injection): reduced | second cell population (CD11b+ CD11c−) expression of C1q (CD11b+ CD11c+ cells; 42nd day post-injection): reduced | second cell population (CD11b+ CD11c−) expression of IL-1α (CD11b+ CD11c+ cells; 42nd day post-injection): reduced | second cell population (CD11b+ CD11c−) expression of TNF-α (CD11b+ CD11c+ cells; 42nd day post-injection): reduced | RGC death secondary to eIOP, Brn3a+ cell counting [1]: reduced | RGC death secondary to eIOP, RBPMS+ cell counting [1]: reduced | effect on intraocular pressure in microbead- or BSS-injected eyes [2]: no effect | nuclear translocation and phosphorylation of NFκB in brain microglia (NFκB [3]): reduce | mRNA levels of IκBα (NFκB [4]): increased | phosphorylated NFκB protein levels (NFκB [4]): decreased | blood-brain barrier penetration ([5]; in vivo): favorable | half-life ([5]; in vivo): extended | NLY01 concentrations in the brain, Parkinson's disease mouse models vs WT animals ([5]; mouse models of Parkinson's disease): higher | expression of A1-specific transcripts in ACSA2+ fraction ([6]; 14th day post-injection): reduced | expression of C3 in ACSA2+ fraction ([6]; 14th day post-injection): reduced | expression of pan reactive transcripts in ACSA2+ fraction ([6]; 14th day post-injection): reduced | expression of A1-specific transcripts in ACSA2+ fraction ([6]; 42nd day post-injection): reduced | expression of C3 in ACSA2+ fraction ([6]; 42nd day post-injection): reduced | expression of pan reactive transcripts in ACSA2+ fraction ([6]; 42nd day post-injection): reduced | microglia density [7, 8]: reduces | relative IBA1 levels [7, 8]: reduces | A1 astrocyte transformation ([7]; mouse models of PD): blocking | dopaminergic cell death ([7]; mouse models of PD): reducing | microglial production of C1q, TNF-α, and IL-1α ([7]; mouse models of PD): reduce | motor symptoms ([7]; mouse models of PD): improving | CD11b+ CD11c− basal expression of C1q (CD11b+ CD11c− cells; 14th day post-injection): without altering | CD11b+ CD11c− basal expression of IL-1a (CD11b+ CD11c− cells; 14th day post-injection): without altering | CD11b+ CD11c− upregulation of TNF-α (CD11b+ CD11c− cells; 14th day post-injection): reduced | CD11b+ CD11c− expression of C1q (CD11b+ CD11c− cells; 42nd day post-injection): reduced | CD11b+ CD11c− expression of IL-1α (CD11b+ CD11c− cells; 42nd day post-injection): reduced | CD11b+ CD11c− expression of TNF-α (CD11b+ CD11c− cells; 42nd day post-injection): reduced
